Assay [1] deals with mouse colorectal cancer cell line CT26.WT. The assay can be described thus: ICD induction evaluation (in vitro): Calreticulin (CRT) on cell surface by flow cytometry. The class given is cell-based. As to conditions: CT26.WT after 24 hours; compound (A) 4 μM, MTX 1 μM; adjusted MFI. As for the experimental part: In cancer cells treated with different compounds, the expression level of Calreticulin (CRT), which serves as an index of Immunogenic cell death (ICD), was measured. Cells of mouse colorectal cancer cell line CT26.WT were seeded in a 6-well plate and cultured overnight. After the supernatant was removed, the cells were washed twice with PBS. In RPMI1640 culture solution containing 10% FBS (R10), compound (A), (4 μM) or Mitoxantrone (MTX) (1 μM) was added. As a control, DMSO was added in the same amount as that of compound (A) (R10-DMSO). After completion of drug treatment, CT26.WT cells were collected and suspended in PBS, and then, seeded in a 96-well (round bottom) plate at 1×10^6 cells/well. […] The expression level of CRT on the cancer cells was measured by flow cytometry (FACS CantoII: manufactured by Becton, Dickinson and Company). Data were analyzed by FlowJo (manufactured by TreeStar Inc). Note that, LIVE/DEAD Fixable Violet-positive cells were determined as dead cells and excluded from the analysis. The mean fluorescence intensity (MFI) of CRT was calculated. The value, which was obtained by subtracting the MFI of the cells treated with Isotype control from the MFI of stained cells, was determined as the adjusted MFI. […] The results satisfying P<0.05 (two-sided test) were determined as being significant (***: P<0.001, **: P<0.01).

The test system of assay [2] is spleen cells (CD4-positive / CD8-positive T cells, Tcm). The assay can be described thus: FCM analysis of spleen cells (T cell populations). The format is in vivo, mouse. As to conditions: for ratio occupied by Tcm in CD4-positive T cells compared to NCD treatment group: PBS administration (FIG. 29A); for ratio occupied by Tcm in CD8-positive T cells compared to NCD treatment group: PBS administration (FIG. 29B); for ratio occupied by CD4-positive T cells in the whole cells / ratio occupied by CD8-positive T cells in the whole cells: plus anti-SIRPα antibody (5C12) (FIG. 30C). The protocol: From each of the mice used in Example 3, the spleen was excised out and spleen cells were prepared by use of PBS and seeded in a 96-well (round bottom) plate at 1×10^6 cells/well. After centrifugation was carried out at 1200 rpm for 3 minutes, the supernatant was removed. […] (manufactured by Biolegend, Inc.) diluted to 1/20 with PBS was added up to 100 μL/well. After standing at room temperature for 30 minutes, centrifugation was carried out at 1200 rpm for 3 minutes. The supernatant was removed, and primary-antibody solutions (FITC anti-CD36 antibody, PerCP anti-CD4 antibody, PE/Cy7 anti-CD8a antibody, APC anti-CD62L antibody, and APC/Cy7 anti-CD44 antibody: all manufactured by Biolegend, Inc.) were diluted with FACS buffer (1 mM EDTA, 5% FBS) and added in an amount of 50 μL/well. After standing in a dark place at 4° C. for 25 minutes, centrifugation was carried out at 1200 rpm for 3 minutes, and then the supernatant was removed. Washing was carried out twice with FACS buffer (200 μL/wells). After centrifugation, the supernatant was removed. A suspension was made with Stabilizing Fixative (manufactured by Becton, Dickinson and Company) and allowed to stand at room temperature for 10 minutes. Measurement was carried out by flow cytometry (FACS CantoII: manufactured by Becton, Dickinson and Company). Data were analyzed by use of FlowJo (manufactured by TreeStar Inc). Comparison between the NCD group and each of the drug treatment groups, or comparison among the PBS administration group, the anti-SIRPα antibody group and an anti-CD47 antibody group in each of the cell treatment groups was made in accordance with the Dunnett's multiple comparison. P value was expressed to four decimal places and the results satisfying P<0.05 (two-sided test) were determined as being significant.
Note that individual populations in the CD4-positive T cells and CD8-positive T cells were identified in the following conditions.
Tcm: central memory T cells [CD44(+) CD62L(+)]

The target in the next assay is T1, Topoisomerase I (Homo sapiens, UniProt P11387).
T1 sequence (P11387 1-765): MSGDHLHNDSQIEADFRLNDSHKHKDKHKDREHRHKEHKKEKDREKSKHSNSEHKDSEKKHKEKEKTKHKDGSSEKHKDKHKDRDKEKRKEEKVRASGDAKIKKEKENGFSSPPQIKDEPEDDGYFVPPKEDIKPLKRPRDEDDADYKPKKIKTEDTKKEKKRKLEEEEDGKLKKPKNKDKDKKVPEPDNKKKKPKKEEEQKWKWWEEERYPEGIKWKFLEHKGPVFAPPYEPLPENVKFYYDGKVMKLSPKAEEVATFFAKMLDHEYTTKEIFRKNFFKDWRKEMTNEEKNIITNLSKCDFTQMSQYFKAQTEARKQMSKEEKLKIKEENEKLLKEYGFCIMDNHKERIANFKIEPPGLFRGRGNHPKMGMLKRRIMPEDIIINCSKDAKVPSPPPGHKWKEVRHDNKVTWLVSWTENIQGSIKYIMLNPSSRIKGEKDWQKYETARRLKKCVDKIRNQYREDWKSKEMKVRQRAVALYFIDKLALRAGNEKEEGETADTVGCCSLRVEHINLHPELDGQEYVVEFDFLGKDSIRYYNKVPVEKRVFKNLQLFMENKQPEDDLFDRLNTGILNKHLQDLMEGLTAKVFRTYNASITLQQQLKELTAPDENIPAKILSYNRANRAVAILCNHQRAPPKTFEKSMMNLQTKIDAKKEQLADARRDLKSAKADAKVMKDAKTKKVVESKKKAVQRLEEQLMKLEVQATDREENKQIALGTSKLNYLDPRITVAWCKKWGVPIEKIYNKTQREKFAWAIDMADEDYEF
Particulars: Ogitani Y. et al., Clinical Cancer Research 2016; cited from earlier work.

Setting [3] is: plus anti-CD47 antibody (MIAP410) (FIG. 30A).
Where [4] appears, read: plus anti-CD47 antibody (MIAP410) (FIG. 30B).
Setting [5] is: plus anti-SIRPα antibody (5C12) (FIG. 30A).
The mark [6] stands for this setting: plus anti-SIRPα antibody (5C12) (FIG. 30B).

The structures appear in SMILES notation.

Regarding `CC[C@@]1(O)C(=O)OCc2c1cc1n(c2=O)Cc2c-1nc1cc(F)c(C)c3c1c2[C@@H](NC(=O)CO)CC3` [compound (A)], in assay [1], the “CRT expression on cell surface relative to control group” value is “about 12.7 times”. Also, in assay [2], the “ratio occupied by Tcm in CD4-positive T cells compared to NCD treatment group” value is on record as “significantly increased”, the “ratio occupied by Tcm in CD8-positive T cells compared to NCD treatment group” value is “significantly increased”, the “ratio occupied by CD4-positive T cells in the whole cells” value is “significantly increased” and the “ratio occupied by CD8-positive T cells in the whole cells” value is reported as “tendency to increase”. In addition, the “ratio occupied by Tcm in CD4-positive T cells compared to the _PBS group of the same drug” value in assay [2] (setting [3]) is “significantly decreased”. Besides, in assay [2] (setting [4]), the “ratio occupied by Tcm in CD8-positive T cells compared to the _PBS group of the same drug” value was “significantly decreased”. Moreover, the “ratio occupied by Tcm in CD4-positive T cells compared to the _PBS group of the same drug” value in assay [2] (setting [5]) is recorded as “tendency to increase”. For the same molecule, the “ratio occupied by Tcm in CD8-positive T cells compared to the _PBS group of the same drug” value in assay [2] (setting [6]) was “substantially the same value”. Moreover, on Topoisomerase I, the “topoisomerase I inhibitory effect” value is on record as “TpoI inhibitor”.

Consider `O=C1c2c(O)ccc(O)c2C(=O)c2c(NCCNCCO)ccc(NCCNCCO)c21` [MTX, Mitoxantrone, reference compound], for which the “CRT expression on cell surface relative to control group” value in assay [1] is “about 2.6 times”. In assay [2], the “ratio occupied by Tcm in CD4-positive T cells compared to NCD treatment group” value was “significantly increased”, the “ratio occupied by Tcm in CD8-positive T cells compared to NCD treatment group” value is listed as “significantly increased”, the “ratio occupied by CD4-positive T cells in the whole cells” value was “tendency to increase” and the “ratio occupied by CD8-positive T cells in the whole cells” value was “significantly increased”. Besides, the “ratio occupied by Tcm in CD4-positive T cells compared to the _PBS group of the same drug” value in assay [2] (setting [3]) was “tendency to increase”. Also, the “ratio occupied by Tcm in CD8-positive T cells compared to the _PBS group of the same drug” value in assay [2] (setting [4]) is “tendency to increase”. Further, in assay [2] (setting [5]), the “ratio occupied by Tcm in CD4-positive T cells compared to the _PBS group of the same drug” value is reported as “tendency to increase”. Further, the “ratio occupied by Tcm in CD8-positive T cells compared to the _PBS group of the same drug” value in assay [2] (setting [6]) is “significantly increased”.

The record behind these values is US20230414778A1, “COMBINATION OF ANTIBODY-DRUG CONJUGATE WITH ANTI-SIRPalpha ANTIBODY” (DAIICHI SANKYO COMPANY, LIMITED, priority 2020, published 2023).
